Data set [1] in a line: Permeability of the compound measured after 24 hrs by PAMPA. The class given is ADME. The conditions noted are these: read-out: permeability.
In data set [2] the target is T1, Ryanodine receptor 2 (Homo sapiens, UniProt Q92736). The experiment in a line: Modulator activity at wild type RyR2 (unknown origin) expressed in HEK293T co-expressed with R-CEPIA1er assessed as decrease in RyR2-mediated calcium leak in presence of calcium chloride by time-lapse fluorescence analysis. Type of data set: cell-based.
Data set [3] deals with T1, Ryanodine receptor 2. Nature of the data set: Modulator activity at wild type RyR2 (unknown origin) expressed in HEK293T co-expressed with R-CEPIA1er assessed as decrease in RyR2-mediated calcium leak at 25 uM in presence of calcium chloride by time-lapse fluorescence analysis. The class given is cell-based. The conditions noted are these: filed as modulator.
The target in data set [4] is Sarcoplasmic/endoplasmic reticulum calcium ATPase 2 (Homo sapiens) (UniProt P16615). The experiment in a line: Activation of SERCA2a in human HEK293T cells endoplasmic reticulum assessed as increase in […] measured for 10 mins in presence of ATP by NADH fluorescence-coupled ATPase assay. The class given is subcellular.
Sarcoplasmic/endoplasmic reticulum calcium ATPase 2 (Homo sapiens), sequence (P16615 whole entry): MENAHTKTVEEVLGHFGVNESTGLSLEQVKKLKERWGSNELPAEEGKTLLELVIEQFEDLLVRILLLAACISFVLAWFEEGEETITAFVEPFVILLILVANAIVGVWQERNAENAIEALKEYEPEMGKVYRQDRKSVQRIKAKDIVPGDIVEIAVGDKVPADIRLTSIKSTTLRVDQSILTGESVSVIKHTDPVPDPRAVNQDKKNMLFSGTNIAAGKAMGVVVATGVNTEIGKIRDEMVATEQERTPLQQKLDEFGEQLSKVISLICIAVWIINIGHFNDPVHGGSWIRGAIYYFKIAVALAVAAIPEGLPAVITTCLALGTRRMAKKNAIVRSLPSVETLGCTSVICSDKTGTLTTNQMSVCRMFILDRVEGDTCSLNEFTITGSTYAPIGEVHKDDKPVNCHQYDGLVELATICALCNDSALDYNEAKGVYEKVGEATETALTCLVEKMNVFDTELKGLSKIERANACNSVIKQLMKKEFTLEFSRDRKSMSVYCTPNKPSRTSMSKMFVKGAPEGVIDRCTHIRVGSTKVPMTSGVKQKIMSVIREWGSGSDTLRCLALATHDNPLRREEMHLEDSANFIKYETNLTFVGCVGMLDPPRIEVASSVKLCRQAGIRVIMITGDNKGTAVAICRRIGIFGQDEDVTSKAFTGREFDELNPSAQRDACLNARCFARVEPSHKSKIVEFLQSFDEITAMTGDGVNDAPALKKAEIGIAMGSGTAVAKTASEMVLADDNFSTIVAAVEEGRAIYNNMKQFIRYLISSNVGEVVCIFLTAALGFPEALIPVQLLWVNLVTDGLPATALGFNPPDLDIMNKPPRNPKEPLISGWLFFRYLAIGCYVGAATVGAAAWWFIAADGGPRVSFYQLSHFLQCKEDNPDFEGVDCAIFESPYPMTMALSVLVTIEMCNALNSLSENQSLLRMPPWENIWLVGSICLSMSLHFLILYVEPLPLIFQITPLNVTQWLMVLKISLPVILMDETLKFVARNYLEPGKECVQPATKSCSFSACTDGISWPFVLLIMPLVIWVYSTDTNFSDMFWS
Data set [5] has as its target Sarcoplasmic/endoplasmic reticulum calcium ATPase 2 (Mus musculus) (UniProt O55143). Nature of the data set: Activation of SERCA2a in C57BL/6N mouse sarcoplasmic reticulum assessed as increase in […] measured for 10 mins in presence of ATP by NADH fluorescence-coupled ATPase assay. The class given is subcellular. The conditions noted are these: filed as activator.

Data set [6] shares this target. The experiment in a line: (§1) Activation of SERCA2a in mouse HL-1 cells assessed as increase in caffeine-induced calcium release incubated for 2 hrs by FLIPR Calcium 6 dye based caffeine assay. The class given is cell-based.
For data set [7] the target is unchanged. The experiment in a line: Activation of SERCA2a in mouse HL-1 cells assessed as increase in caffeine-induced calcium release at 0.1 to 50 uM incubated for 2 hrs by FLIPR Calcium 6 dye based caffeine assay. The class given is cell-based. The conditions noted are these: dose 0.1-50 µM.
Data set [8] has the same target. The experiment in a line: Activation of SERCA2a in mouse HL-1 cells assessed as increase in caffeine-induced calcium release at 10 uM incubated for 2 hrs by FLIPR Calcium 6 dye based caffeine assay. Type of data set: cell-based.
Data set [9] deals with T1, Ryanodine receptor 2. The experiment in a line: Modulator activity at wild type RyR2 (unknown origin) expressed in HEK293T co-expressed with R-CEPIA1er assessed as decrease in RyR2-mediated calcium leak at 1 mM in presence of calcium chloride by time-lapse fluorescence analysis. The class given is cell-based. The conditions noted are these: filed as modulator.
In data set [10] the target is Sarcoplasmic/endoplasmic reticulum calcium ATPase 2 (Mus musculus, UniProt O55143). Described as §1. Type of data set: cell-based.
Sarcoplasmic/endoplasmic reticulum calcium ATPase 2, sequence (O55143 whole entry): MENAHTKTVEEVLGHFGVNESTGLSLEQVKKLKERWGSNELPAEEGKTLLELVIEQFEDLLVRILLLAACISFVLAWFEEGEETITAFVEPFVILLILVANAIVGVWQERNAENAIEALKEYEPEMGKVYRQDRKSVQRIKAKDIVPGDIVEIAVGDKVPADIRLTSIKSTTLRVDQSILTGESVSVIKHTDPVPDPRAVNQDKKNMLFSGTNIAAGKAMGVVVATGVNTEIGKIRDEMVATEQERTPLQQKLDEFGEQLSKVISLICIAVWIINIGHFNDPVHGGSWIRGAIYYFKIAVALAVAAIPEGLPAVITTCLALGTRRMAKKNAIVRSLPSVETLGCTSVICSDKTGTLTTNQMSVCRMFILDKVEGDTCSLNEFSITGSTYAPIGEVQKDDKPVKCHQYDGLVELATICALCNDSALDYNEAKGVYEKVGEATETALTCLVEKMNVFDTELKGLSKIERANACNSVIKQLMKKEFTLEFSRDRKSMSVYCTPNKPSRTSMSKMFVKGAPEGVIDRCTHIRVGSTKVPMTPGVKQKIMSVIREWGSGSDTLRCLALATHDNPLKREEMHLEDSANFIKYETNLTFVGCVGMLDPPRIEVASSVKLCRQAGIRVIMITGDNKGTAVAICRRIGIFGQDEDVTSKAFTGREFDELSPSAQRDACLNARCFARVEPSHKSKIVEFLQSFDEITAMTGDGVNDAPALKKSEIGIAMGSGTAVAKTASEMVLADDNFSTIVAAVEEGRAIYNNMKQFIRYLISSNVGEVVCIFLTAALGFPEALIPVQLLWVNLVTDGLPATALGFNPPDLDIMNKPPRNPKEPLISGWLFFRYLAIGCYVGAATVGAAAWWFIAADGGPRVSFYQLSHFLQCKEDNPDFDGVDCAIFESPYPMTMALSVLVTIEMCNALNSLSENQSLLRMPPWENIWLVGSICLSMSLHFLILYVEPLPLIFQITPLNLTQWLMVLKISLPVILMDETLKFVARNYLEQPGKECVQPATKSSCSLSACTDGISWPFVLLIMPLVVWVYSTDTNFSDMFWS
Data set [11] concerns the target Sarcoplasmic/endoplasmic reticulum calcium ATPase 2 (Mus musculus) (UniProt O55143). Nature of the data set: Activation of SERCA2a in mouse HL-1 cells assessed as increase in caffeine-induced calcium release at 3 uM incubated for 2 hrs by FLIPR Calcium 6 dye based caffeine assay relative to control. The conditions noted are these: filed as activator. Type of data set: cell-based.

The target is the same in data set [12]. The experiment in a line: Activation of SERCA2a in mouse HL-1 cells assessed as increase in caffeine-induced calcium release at 10 uM incubated for 2 hrs by FLIPR Calcium 6 dye based caffeine assay relative to control. Type of data set: cell-based. The conditions noted are these: filed as activator.
Data set [13] has the same target. Nature of the data set: Activation of SERCA2a in mouse HL-1 cells assessed as increase in caffeine-induced calcium release at 25 uM incubated for 2 hrs by FLIPR Calcium 6 dye based caffeine assay. The class given is cell-based.
Data set [14] has the same target. The experiment in a line: Activation of SERCA2a in mouse HL-1 cells assessed as increase in caffeine-induced calcium release at 50 uM incubated for 2 hrs by FLIPR Calcium 6 dye based caffeine assay. Type of data set: cell-based.

Active and inactive are the calls of the source. The rule behind the calls is not given here.

The results in this text go back to ChEMBL document CHEMBL5375959 (J Med Chem, 2023).

Sarcoplasmic/endoplasmic reticulum calcium ATPase 2 (Mus musculus), sequence (O55143 whole entry): as above

With `COc1ccc2c(c1)CN(CCCCN(CCCCC1(O)CC1)CCCCC1(O)CC1)CCS2`, the Papp at 24 h in data set [1] came out at 0.6 ×10⁻⁶ cm/s. At Ryanodine receptor 2 [2], the half-maximal effective concentration (EC50) (usually the concentration giving half of the maximal effect) worked out at 2.7 µM. At Ryanodine receptor 2 [3], the result was Active.
Regarding `COc1ccc(OCCCNCCCCC2(O)CC2)cc1`, in data set [1], the Papp at 24 h was 4 ×10⁻⁶ cm/s. The outcome in [4] was inactive. Further, the outcome in data set [5] was Active.
Regarding `COc1ccc2c(c1)CN(C)CCS2`, the Papp at 24 h in data set [1] is 1.2 ×10⁻⁶ cm/s. The result at Ryanodine receptor 2 [2] (filed as modulator) and on Ryanodine receptor 2 [9] was Active. Also, the result in data set [6], in data set [7] and in data set [8] was inactive.
Regarding `COc1ccc2c(c1)CN(C(=O)C(=O)O)CCS2` [ALADORIAN], the Papp at 24 h in [1] stood at 1 ×10⁻⁶ cm/s. Besides, the outcome on Ryanodine receptor 2 [2] (filed as modulator) and at Ryanodine receptor 2 [3] was Active. Besides, the outcome in [6], in data set [7] and in [8] was inactive.
On to `COc1ccc2c(c1)CN(Cc1ccc(C(=O)O)cc1)CCS2` [SURLORIAN], for which the Papp at 24 h in [1] came out at 6.8 ×10⁻⁶ cm/s. For the same compound, the result (on Ryanodine receptor 2 [2] (filed as modulator); in data set [4] (filed as activator); in data set [5]) was Active. Moreover, the Activity entry in data set [6] (filed as activator) is “Dose-Dependent Effect”. Further, the EC50 in data set [10] was 34.3 µM.
As to `COc1ccc2c(c1)CN(CCCCC1(O)CC1)CCS2`, the Papp at 24 h in data set [1] stood at 3.6 ×10⁻⁶ cm/s. In addition, the result on Ryanodine receptor 2 [2] was inactive. The EC50 in data set [10] is > 1000 µM. Also, the outcome in [4] (filed as activator) and in data set [5] was Active.
As to `COc1ccc(OCCCN(CCCCC2(O)CC2)CCCCC2(O)CC2)cc1`, in data set [1], the Papp at 24 h was 4 ×10⁻⁶ cm/s. Also, the EC50 on Ryanodine receptor 2 [2] is > 23 µM; in [10], 1.5 µM. For the same compound, the result in data set [4] (filed as activator) and in data set [5] was Active. Moreover, the Activity in [11] and in data set [12] was 150% throughout. For the same compound, the result in [13] and in data set [14] was inactive.
Consider `COc1ccc(SCCCN(CCCCC2(O)CC2)CCCCC2(O)CC2)cc1`, for which, in data set [1], the Papp at 24 h stood at 3.6 ×10⁻⁶ cm/s. Moreover, the result in data set [4] (filed as activator) and in data set [5] was Active.
Turning to `COc1ccc(SCCCNCCCCC2(O)CC2)cc1`, in [1], the Papp at 24 h came to 6.9 ×10⁻⁶ cm/s. For the same compound, the outcome in [4] (filed as activator) and in data set [5] was Active.
Consider `COc1ccc2c(c1)CN(CCCCNCCCCC1(O)CC1)CCS2`, for which the Papp at 24 h in data set [1] came out at 0.8 ×10⁻⁶ cm/s. At Ryanodine receptor 2 [2], the EC50 stood at 8.17 µM. Further, the outcome in data set [4] was inactive. In addition, the result in data set [5] was Active.
With `O=C1CN(/N=C/c2ccc(-c3ccc([N+](=O)[O-])cc3)o2)C(=O)N1`, the result at Ryanodine receptor 2 [3] was Active.
